Experimental data published in ChEMBL document CHEMBL3885861, “Open TG-GATES”.

Organism: Rattus norvegicus
Assay: Open TG-GATES - Regimen: Single
Format: toxicity, organism-based, Sprague-Dawley
Set-up: regimen Single, gender Male, age 6 weeks
Conditions: in vivo, po, 5 mg/kg, route gavage, dose level Middle; for APTT / Bas / Eos / Fbg / Hb / Ht / Lym / MCH / MCHC / MCV / Mono / Neu / PT / Plat / RBC / Ret / WBC: tissue Blood; for KIDNEY_L / KIDNEY_R / KIDNEY_TOTAL: tissue Kidney; for ALP / ALT / AST / CRE / Cl / DBIL / GLC / IP / K / LDH / Na / PL / RALB / TBIL / TC / TG / TP / gamma-GTP: tissue Plasma

COc1cc2c(c(OC)c1OC)-c1ccc(OC)c(=O)cc1[C@@H](NC(C)=O)CC2 [COLCHICINE]
APTT (3 h): 16.4 s | Bas (3 h): 0% | Eos (3 h): 0.8% | Fbg (3 h): 217.6 mg/dL | Hb (3 h): 13.6 g/dL | Ht (3 h): 41.3% | Lym (3 h): 83.2% | MCH (3 h): 21.9 pg | MCHC (3 h): 32.8% | MCV (3 h): 66.5 fL | Mono (3 h): 7.2% | Neu (3 h): 9.2% | PT (3 h): 12.1 s | Plat (3 h): 112.7 x10_4/uL | RBC (3 h): 622 x10_4/ul | Ret (3 h): 9.5% | WBC (3 h): 111.5 x10_2/uL | KIDNEY_L (3 h): 0.9 g | KIDNEY_R (3 h): 1 g | KIDNEY_TOTAL (3 h): 1.9 g | ALP (3 h): 915.6 IU/L | ALT (3 h): 52.6 IU/L | AST (3 h): 119.2 IU/L | CRE (3 h): 0.4 mg/dL | Cl (3 h): 103.4 meq/L | DBIL (3 h): 0.046 mg/dL | GLC (3 h): 193.4 mg/dL | IP (3 h): 9.1 mg/dL | K (3 h): 4.5 meq/L | LDH (3 h): 248 IU/L | Na (3 h): 139 meq/L | PL (3 h): 133.8 mg/dL | RALB (3 h): 3.7 g/dL | TBIL (3 h): 0.4 mg/dL | TC (3 h): 79.6 mg/dL | TG (3 h): 53 mg/dL | TP (3 h): 5.5 g/dL | gamma-GTP (3 h): 1 IU/L | TERMINAL_BW (6 h): 218.4 g | APTT (6 h): 17.4 s | Bas (6 h): 0% | Eos (6 h): 0.6% | Fbg (6 h): 205.2 mg/dL | Hb (6 h): 13.5 g/dL | Ht (6 h): 41.4% | Lym (6 h): 72.2% | MCH (6 h): 21 pg | MCHC (6 h): 32.6% | MCV (6 h): 64.3 fL | Mono (6 h): 10.8% | Neu (6 h): 16.2% | PT (6 h): 12.5 s | Plat (6 h): 107.8 x10_4/uL | RBC (6 h): 644.8 x10_4/ul | Ret (6 h): 8.9% | WBC (6 h): 105.2 x10_2/uL | KIDNEY_L (6 h): 1 g | KIDNEY_R (6 h): 1 g | KIDNEY_TOTAL (6 h): 1.9 g | ALP (6 h): 1038.4 IU/L | ALT (6 h): 103.8 IU/L | AST (6 h): 216.8 IU/L | CRE (6 h): 0.5 mg/dL | Cl (6 h): 103.2 meq/L | DBIL (6 h): 0.048 mg/dL | GLC (6 h): 180.2 mg/dL | IP (6 h): 9.4 mg/dL | K (6 h): 4.6 meq/L | LDH (6 h): 340.6 IU/L | Na (6 h): 139.6 meq/L | PL (6 h): 118.4 mg/dL | RALB (6 h): 3.7 g/dL | TBIL (6 h): 0.4 mg/dL | TC (6 h): 64 mg/dL | TG (6 h): 35.2 mg/dL | TP (6 h): 5.5 g/dL | gamma-GTP (6 h): 1 IU/L | TERMINAL_BW (9 h): 217.1 g | APTT (9 h): 16.7 s | Bas (9 h): 0% | Eos (9 h): 1% | Fbg (9 h): 207.8 mg/dL | Hb (9 h): 13.6 g/dL | Ht (9 h): 41.3% | Lym (9 h): 67.4% | MCH (9 h): 21.5 pg | MCHC (9 h): 32.9% | MCV (9 h): 65.4 fL | Mono (9 h): 12% | Neu (9 h): 20.4% | PT (9 h): 12.6 s | Plat (9 h): 108.3 x10_4/uL | RBC (9 h): 631.6 x10_4/ul | Ret (9 h): 9.1% | WBC (9 h): 93.9 x10_2/uL | KIDNEY_L (9 h): 1 g | KIDNEY_R (9 h): 1 g | KIDNEY_TOTAL (9 h): 2 g | ALP (9 h): 1040.6 IU/L | ALT (9 h): 165.4 IU/L | AST (9 h): 290.6 IU/L | CRE (9 h): 0.5 mg/dL | Cl (9 h): 103.4 meq/L | DBIL (9 h): 0.098 mg/dL | GLC (9 h): 191.6 mg/dL | IP (9 h): 8.8 mg/dL | K (9 h): 5.1 meq/L | LDH (9 h): 265.2 IU/L | Na (9 h): 137 meq/L | PL (9 h): 137.6 mg/dL | RALB (9 h): 3.7 g/dL | TBIL (9 h): 0.4 mg/dL | TC (9 h): 79.2 mg/dL | TG (9 h): 32 mg/dL | TP (9 h): 5.4 g/dL | gamma-GTP (9 h): 2.2 IU/L | TERMINAL_BW (24 h): 226.2 g | APTT (24 h): 16.3 s | Bas (24 h): 0% | Eos (24 h): 1% | Fbg (24 h): 208.6 mg/dL | Hb (24 h): 13.6 g/dL | Ht (24 h): 41.5% | Lym (24 h): 78.4% | MCH (24 h): 21.6 pg | MCHC (24 h): 32.8% | MCV (24 h): 65.8 fL | Mono (24 h): 9.8% | Neu (24 h): 10.8% | PT (24 h): 11.2 s | Plat (24 h): 117.7 x10_4/uL | RBC (24 h): 631.6 x10_4/ul | Ret (24 h): 7.6% | WBC (24 h): 120.4 x10_2/uL | KIDNEY_L (24 h): 1 g | KIDNEY_R (24 h): 1 g | KIDNEY_TOTAL (24 h): 2 g | ALP (24 h): 975.4 IU/L | ALT (24 h): 65.4 IU/L | AST (24 h): 110.6 IU/L | CRE (24 h): 0.6 mg/dL | Cl (24 h): 104 meq/L | DBIL (24 h): 0.064 mg/dL | GLC (24 h): 191.8 mg/dL | IP (24 h): 5.3 mg/dL | K (24 h): 4.7 meq/L | LDH (24 h): 116 IU/L | Na (24 h): 138 meq/L | PL (24 h): 125.4 mg/dL | RALB (24 h): 3.7 g/dL | TBIL (24 h): 0.4 mg/dL | TC (24 h): 71.2 mg/dL | TG (24 h): 58 mg/dL | TP (24 h): 5.6 g/dL | gamma-GTP (24 h): 1.2 IU/L
